In PubChem BioAssay (NCI):
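GI50 marks 50% less growth. TGI: total growth inhibition.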

Experiments:
Test in all cases: NCI anticancer screen, dose series, 384-well format
786-0 renal = tested on: 786-0 renal
A498 renal = tested on: A498 renal
A549 NSCLC = tested on: A549 NSCLC
ACHN renal = tested on: ACHN renal
BT-549 breast = tested on: BT-549 breast
CAKI-1 renal = tested on: CAKI-1 renal
COLO 205 colon = tested on: COLO 205 colon
DU-145 prostate = tested on: DU-145 prostate
EKVX NSCLC = tested on: EKVX NSCLC
HCT-116 colon = tested on: HCT-116 colon
HCT-15 colon = tested on: HCT-15 colon
HL-60(TB) leukemia = tested on: HL-60(TB) leukemia
HOP-62 NSCLC = tested on: HOP-62 NSCLC
HOP-92 NSCLC = tested on: HOP-92 NSCLC
HS 578T breast = tested on: HS 578T breast
HT29 colon = tested on: HT29 colon
IGROV1 ovarian = tested on: IGROV1 ovarian
K-562 leukemia = tested on: K-562 leukemia
KM12 colon = tested on: KM12 colon
M14 melanoma = tested on: M14 melanoma
MALME-3M melanoma = tested on: MALME-3M melanoma
MCF7 breast = tested on: MCF7 breast
MDA-MB-231 breast = tested on: MDA-MB-231 breast
MDA-MB-435 melanoma = tested on: MDA-MB-435 melanoma
MDA-MB-468 breast = tested on: MDA-MB-468 breast
MOLT-4 leukemia = tested on: MOLT-4 leukemia
NCI-H226 lung = tested on: NCI-H226 lung
NCI-H23 lung = tested on: NCI-H23 lung
NCI-H322M lung = tested on: NCI-H322M lung
NCI-H460 NSCLC = tested on: NCI-H460 NSCLC
NCI-H522 lung = tested on: NCI-H522 lung
OVCAR-3 ovarian = tested on: OVCAR-3 ovarian
OVCAR-4 ovarian = tested on: OVCAR-4 ovarian
OVCAR-5 ovarian = tested on: OVCAR-5 ovarian
OVCAR-8 ovarian = tested on: OVCAR-8 ovarian
PC-3 prostate = tested on: PC-3 prostate
RXF 393 renal = tested on: RXF 393 renal
SF-268 CNS = tested on: SF-268 CNS
SF-295 CNS = tested on: SF-295 CNS
SF-539 CNS = tested on: SF-539 CNS
SK-MEL-2 melanoma = tested on: SK-MEL-2 melanoma
SK-MEL-28 melanoma = tested on: SK-MEL-28 melanoma
SK-MEL-5 melanoma = tested on: SK-MEL-5 melanoma
SK-OV-3 ovarian = tested on: SK-OV-3 ovarian
SN12C renal = tested on: SN12C renal
SNB-19 CNS = tested on: SNB-19 CNS
SNB-75 CNS = tested on: SNB-75 CNS
SR leukemia = tested on: SR leukemia
SW-620 colon = tested on: SW-620 colon
T-47D breast = tested on: T-47D breast
TK-10 renal = tested on: TK-10 renal
U251 glioblastoma = tested on: U251 glioblastoma
UACC-257 melanoma = tested on: UACC-257 melanoma
UACC-62 melanoma = tested on: UACC-62 melanoma
UO-31 renal = tested on: UO-31 renal

CCc1cc2c(c(OCC(F)(F)F)c(C(=O)NC3CCN(C(=O)CO)CC3)n2C)c(=O)n1CC(=O)c1ccccc1
GI50 ([…]-0 renal): 18.4 µM | TGI (786-0 renal): 36.6 µM | GI50 (A498 renal): 33.6 µM | TGI (A498 renal): > 100 µM | GI50 (A549 NSCLC): 46.8 µM | TGI (A549 NSCLC): > 100 µM | GI50 (ACHN renal): 31.6 µM | TGI (ACHN renal): > 100 µM | GI50 (BT-549 breast): 57.9 µM | TGI (BT-549 breast): > 100 µM | GI50 (CAKI-1 renal): 39.6 µM | TGI (CAKI-1 renal): > 100 µM | GI50 (COLO 205 colon): > 100 µM | TGI (COLO 205 colon): > 100 µM | GI50 (DU-145 prostate): 82.5 µM | TGI (DU-145 prostate): > 100 µM | GI50 (EKVX NSCLC): 40.3 µM | TGI (EKVX NSCLC): > 100 µM | GI50 (HCT-116 colon): 35.6 µM | TGI (HCT-116 colon): > 100 µM | GI50 (HCT-15 colon): 61.9 µM | TGI (HCT-15 colon): > 100 µM | GI50 (HL-60(TB) leukemia): 25.3 µM | TGI (HL-60(TB) leukemia): 40.7 µM | GI50 (HOP-62 NSCLC): 28.2 µM | TGI (HOP-62 NSCLC): > 100 µM | GI50 (HOP-92 NSCLC): 58.6 µM | TGI (HOP-92 NSCLC): > 100 µM | GI50 (HS 578T breast): 37.7 µM | TGI (HS 578T breast): > 100 µM | GI50 (HT29 colon): 41.7 µM | TGI (HT29 colon): > 100 µM | GI50 (IGROV1 ovarian): 58.2 µM | TGI (IGROV1 ovarian): > 100 µM | GI50 (K-562 leukemia): 33.6 µM | TGI (K-562 leukemia): > 100 µM | GI50 (KM12 colon): 42.4 µM | TGI (KM12 colon): > 100 µM | GI50 (M14 melanoma): > 100 µM | TGI (M14 melanoma): > 100 µM | GI50 (MALME-3M melanoma): 73.9 µM | TGI (MALME-3M melanoma): > 100 µM | GI50 (MCF7 breast): 9.23 µM | TGI (MCF7 breast): > 100 µM | GI50 (MDA-MB-231 breast): 37.7 µM | TGI (MDA-MB-231 breast): > 100 µM | GI50 (MDA-MB-435 melanoma): > 100 µM | TGI (MDA-MB-435 melanoma): > 100 µM | GI50 (MDA-MB-468 breast): 20.6 µM | TGI (MDA-MB-468 breast): 79.2 µM | GI50 (MOLT-4 leukemia): 18.3 µM | TGI (MOLT-4 leukemia): 34.6 µM | GI50 (NCI-H226 lung): 22.4 µM | TGI (NCI-H226 lung): > 100 µM | GI50 (NCI-H23 lung): 79.9 µM | TGI (NCI-H23 lung): > 100 µM | GI50 (NCI-H322M lung): 72.6 µM | TGI (NCI-H322M lung): > 100 µM | GI50 (NCI-H460 NSCLC): 27.5 µM | TGI (NCI-H460 NSCLC): > 100 µM | GI50 (NCI-H522 lung): 69.8 µM | TGI (NCI-H522 lung): > 100 µM | GI50 (OVCAR-3 ovarian): 40 µM | TGI (OVCAR-3 ovarian): > 100 µM | GI50 (OVCAR-4 ovarian): 37.1 µM | TGI (OVCAR-4 ovarian): > 100 µM | GI50 (OVCAR-5 ovarian): > 100 µM | TGI (OVCAR-5 ovarian): > 100 µM | GI50 (OVCAR-8 ovarian): 54.2 µM | TGI (OVCAR-8 ovarian): > 100 µM | GI50 (PC-3 prostate): 42.1 µM | TGI (PC-3 prostate): > 100 µM | GI50 (RXF 393 renal): 1.91 µM | TGI (RXF 393 renal): 12.4 µM | GI50 (SF-268 CNS): 68.8 µM | TGI (SF-268 CNS): > 100 µM | GI50 (SF-295 CNS): 24.9 µM | TGI (SF-295 CNS): 98.7 µM | GI50 (SF-539 CNS): 37.8 µM | TGI (SF-539 CNS): > 100 µM | GI50 (SK-MEL-2 melanoma): 30.1 µM | TGI (SK-MEL-2 melanoma): > 100 µM | GI50 (SK-MEL-28 melanoma): 38.9 µM | TGI (SK-MEL-28 melanoma): > 100 µM | GI50 (SK-MEL-5 melanoma): 23.2 µM | TGI (SK-MEL-5 melanoma): > 100 µM | GI50 (SK-OV-3 ovarian): 45.8 µM | TGI (SK-OV-3 ovarian): > 100 µM | GI50 (SN12C renal): > 100 µM | TGI (SN12C renal): > 100 µM | GI50 (SNB-19 CNS): > 100 µM | TGI (SNB-19 CNS): > 100 µM | GI50 (SNB-75 CNS): 54.9 µM | TGI (SNB-75 CNS): > 100 µM | GI50 (SR leukemia): 17.3 µM | TGI (SR leukemia): 31.4 µM | GI50 (SW-620 colon): 57 µM | TGI (SW-620 colon): > 100 µM | GI50 (T-47D breast): 29.9 µM | TGI (T-47D breast): > 100 µM | GI50 (TK-10 renal): 33.9 µM | TGI (TK-10 renal): > 100 µM | GI50 (U251 glioblastoma): 52.6 µM | TGI (U251 glioblastoma): > 100 µM | GI50 (UACC-257 melanoma): 68.8 µM | TGI (UACC-257 melanoma): > 100 µM | GI50 (UACC-62 melanoma): 32.6 µM | TGI (UACC-62 melanoma): > 100 µM | GI50 (UO-31 renal): 19.7 µM | TGI (UO-31 renal): 51.6 µM
